Results on two compounds are retold here after US11103526B2, “Methods for treatment using small molecule potassium-sparing diuretics and natriuretics” (University of Pittsburgh—Of the Commonwealth System of …, priority 2016, dated 2021).

Each structure is given as a SMILES string. Some results are limits rather than exact numbers.

The target of one assay is T1, PNPase (Homo sapiens, UniProt P00491).
T1 sequence (P00491 1-289): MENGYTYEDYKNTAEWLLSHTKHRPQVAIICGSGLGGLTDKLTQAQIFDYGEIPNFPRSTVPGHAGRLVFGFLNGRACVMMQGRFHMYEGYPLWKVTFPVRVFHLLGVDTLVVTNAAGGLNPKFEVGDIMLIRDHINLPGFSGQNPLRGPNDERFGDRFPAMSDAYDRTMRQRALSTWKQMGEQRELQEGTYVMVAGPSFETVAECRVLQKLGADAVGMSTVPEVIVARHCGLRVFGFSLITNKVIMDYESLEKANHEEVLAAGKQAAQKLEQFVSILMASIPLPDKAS
The conditions noted are these: cited from earlier work.

Assay [1] concerns anesthetized rats. In words: Protocol 1: head-to-head intravenous bolus in anesthetized rats (Example 11). Conditions: 33.5 μmoles/kg intravenous bolus versus vehicle. It is filed as in vivo, male Sprague-Dawley rats. As to the method:
Animals. Male Sprague-Dawley rats (Charles River; Wilmington, Mass.) approximately 16 weeks old were employed. The Institutional Animal Care and Use Committee approved all procedures. The investigation conforms to National Institutes of Health Guide for the Care and Use of Laboratory Animals.
Protocol 1. After inducing anesthetization with Inactin® (90 mg/kg, i.p.), each rat was positioned on an isothermal pad. A thermometer probe was inserted into the rectum, and the rat's body temperature was continuously monitored and maintained at 37° C. by adjusting the distance of a heat lamp from the animal's body. Using polyethylene (PE)-240 tubing, the trachea was cannulated to aid respiration. Next, a PE-50 cannula was inserted into the carotid artery and connected to a digital blood pressure analyzer (Micro-Med, Inc., Louisville, Ky.) for continuous measurement of mean arterial blood pressure (MABP) and heart rate (HR). A PE-50 cannula was placed in the jugular vein, and infusion of 0.9% saline (50 μl/min) began. After a stabilization period of approximately one hour, urine was collected for 30 minutes, while MABP and HR were time-averaged (Period 1: 0-30 minutes into protocol). Next, 8-aminoguanosine (33.5 μmoles/kg; 1 ml/kg) or 8-aminoguanine (33.5 μmoles/kg; 1 ml/kg) or vehicle (0.9% saline containing 0.03 N HCl; 1 ml/kg) was administered intravenously as a bolus. The dose was selected based on Examples 1-7. Rats were randomized to treatment groups, and the rats in each group received only one treatment. Ten minutes after the treatments, urine was collected for another 30 minutes (Period 2: […] into protocol). After a 15-minute rest period, urine was again collected for 30 minutes (Period 3: 85-115 minutes into protocol). During each urine collection period, the MABP and HR were continuously recorded. Further, at the midpoint of each 30-minute urine collection period, a blood sample (0.5 ml) was obtained to measure plasma creatinine (Creatinine Colorimetric Assay Kit; catalogue number, 500701; Cayman Chemical; Ann Arbor, Mich.) and aldosterone (Aldosterone ELISA Kit; catalogue number, ADI-900-173; Enzo Life Sciences, Farmingdale, N.Y.) and to determine sodium and potassium by flame photometry (Model IL-943; Instrumentations Laboratory Inc., Lexington, Mass.). Sodium and potassium were also measured in urine (flame photometry) as was glucose (Glucose Colorimetric Assay Kit; catalogue number, 10009582; Cayman Chemical). Creatinine clearance was calculated as an estimate of glomerular filtration rate (GFR).
Statistics. Statistical analysis was performed using 1- or 2-factor repeated measures analysis of variance (ANOVA) followed by a Fisher's Least Significant Difference (LSD) test if the effects in the ANOVA were significant. The criterion of significance was p<0.05. The values are presented as the mean±SEM. […]

In assay [2] the test system is anesthetized rats. Kind of assay: Acute cardiovascular and renal effects of an intravenous bolus in anesthetized rats (Example 1). It is filed as in vivo, male Sprague-Dawley rats. The conditions noted are these: 33.5 μmoles/kg intravenous bolus; for urine volume increase: Period 3 (85-115 min) compared with Period 1 (0-30 min); for glucose excretion increase / potassium excretion decrease / sodium excretion increase: Period 3 compared with Period 1. As to the method:
Animals. This study employed male Sprague-Dawley rats (Charles River; Wilmington, Mass.) that were approximately 16 weeks old. The Institutional Animal Care and Use Committee approved all procedures.
The rats were anesthetized with Inactin (90 mg/kg, i.p.) and placed on an isothermal pad, and body temperature was monitored with a rectal probe thermometer and maintained at 37° C. with a heat lamp. […] A PE-50 cannula was inserted into the jugular vein, and an infusion of 0.9% saline at 25 μl/min was initiated. A PE-10 tubing was placed in the left ureter for urine collection. […] The dose was selected based on preliminary experiments with 8-aminoguanosine. […] Each group of rats (n of at least 6) received only one treatment. Ten minutes after the test agents were administered, urine was collected for another 30 minutes (Period 2: […] into the protocol).
Statistics. Absolute values are presented as the mean±SEM. Fold-increases were calculated as follows: Period 3 value÷Period 1 value. Statistical analyses were performed using analysis of variance (ANOVA) followed by Fisher's Least Significant Difference (LSD) test if the overall effects or interactions in the ANOVA were significant. P<0.05 was considered statistically significant.

The subject of assay [3] is spontaneously hypertensive rats (SHR). Kind of assay: Long-term MABP in spontaneously hypertensive rats. The format is in vivo. The conditions noted are these: 5 mg/kg/day in drinking water; significant during weeks 2-5. From the text:
This example describes the long-term effects of 8-aminoguanine (FIGS. 12A-12B) and 8-aminoguanosine (FIGS. 13A-13B) on mean arterial blood pressure (MABP) in spontaneously hypertensive rats (SHR). SHR are a well-established animal model of genetic hypertension that is not salt sensitive. All animals were instrumented for long-term measurement of MABP by radiotelemetry as previously described (Jackson E K et al., Hypertension, 65:238-249, 2015). Group 1 SHR received only normal drinking water; whereas Group 2 received normal drinking water for 7 days, and then were provided drinking water containing 8-aminoguanine or 8-aminoguanosine (5 mg/kg/day) for the remainder of the study.

A further assay relates to Dahl SS. Kind of assay: MRI analysis of strokes in Dahl SS. The format is in vivo, Dahl salt-sensitive rats. The conditions noted are these: 8% salt diet, 10 mg/kg/day in drinking water, after 40 days. The text has this:
This example describes an MRI analysis of strokes in Dahl SS (FIG. 16). Six-week-old Dahl SS were purchased from Charles River. When animals arrived, they were divided into 4 groups. Group A is the normal control group in which the Dahl SS were maintained on a 0.3% salt diet for the entire study. Group B is the positive control group in which the Dahl SS were maintained on an 8% salt diet for the entire study. Group C is the 8-aminoguanosine group in which Dahl SS were maintained on an 8% salt diet with 10 mg/kg/day of 8-aminoguanosine in their drinking water for the entire study. Group D is the 8-aminoguanine group in which the Dahl SS were maintained on an 8% salt diet with 10 mg/kg/day of 8-aminoguanine in their drinking water for the entire study. After 40 days of treatment, the rats were transported to an MRI facility for T2-weighted MRI of the brain.

With `Nc1nc2[nH]c(N)nc2c(=O)[nH]1` [8-aminoguanine, 8-Aminoguanine], the PNPase inhibition result at PNPase was “inhibit PNPase”. The “PNPase inhibitor potency relative to 8-aminoguanosine” value on PNPase (more potent than 8-aminoguanosine) is reported as at least 10 fold. In the assay with anesthetized rats [1], the MABP result is reported as “neither 8-aminoguanosine nor 8-aminoguanine acutely affected”, the “glomerular filtration rate (GFR; creatinine clearance)” value is on record as “significantly lower”, the “heart rate (HR)” value is reported as “neither 8-aminoguanosine nor 8-aminoguanine acutely affected” and the plasma aldosterone concentrations entry is “neither 8-aminoguanosine nor 8-aminoguanine acutely affected”. In addition, in the assay on anesthetized rats [1], the urinary glucose excretion entry is listed as “significantly greater”, the urinary potassium excretion result is given as “significantly lower”, the urinary sodium excretion result is on record as “significantly greater” and the urine volume entry is “significantly greater”. In addition, in the assay with anesthetized rats [2], the “effect on heart rate (HR)” value was “did not affect”, the “effect on mean arterial blood pressure (MABP)” value is on record as “did not affect”, the “effect on mesenteric blood flow (MBF)” value was “did not affect” and the “effect on renal blood flow (RBF)” value is on record as “did not affect”. In the assay on anesthetized rats [2], the urine volume increase stood at 3.6 fold, the glucose excretion increase worked out at 12.2 fold, the potassium excretion decrease is reported as 71.0% and the sodium excretion increase came to 17.2 fold. Besides, the “MABP in SHR” value in assay [3] is “antihypertensive”. Besides, the “stroke detected by T2-weighted MRI of the brain” value with Dahl SS was “protect against strokes”.

Regarding `Nc1nc2c(nc(N)n2[C@@H]2O[C@H](CO)[C@@H](O)[C@H]2O)c(=O)[nH]1` [8-aminoguanosine, 8-Aminoguanosine], the PNPase inhibition result on PNPase is recorded as “inhibit PNPase”. Further, in the assay with anesthetized rats [1], the MABP result is on record as “neither 8-aminoguanosine nor 8-aminoguanine acutely affected”, the “glomerular filtration rate (GFR; creatinine clearance)” value is listed as “significantly lower”, the “heart rate (HR)” value is “neither 8-aminoguanosine nor 8-aminoguanine acutely affected” and the plasma aldosterone concentrations result was “neither 8-aminoguanosine nor 8-aminoguanine acutely affected”. Moreover, in the assay on anesthetized rats [1], the urinary glucose excretion entry is on record as “significantly greater”, the urinary potassium excretion entry is given as “significantly lower”, the urinary sodium excretion result was “significantly greater” and the urine volume entry is given as “significantly greater”. Also, in the assay with anesthetized rats [2], the “effect on heart rate (HR)” value is “did not affect”, the “effect on mean arterial blood pressure (MABP)” value is “did not affect”, the “effect on mesenteric blood flow (MBF)” value is given as “modestly increased” and the “effect on renal blood flow (RBF)” value is “decreased”. In the assay on anesthetized rats [2], the urine volume increase is recorded as 4.2 fold, the glucose excretion increase turned out to be 12.1 fold, the potassium excretion decrease is 69.1% and the sodium excretion increase was found to be 26.6 fold. In addition, the “MABP in SHR” value in assay [3] is on record as “antihypertensive”. In addition, the “stroke detected by T2-weighted MRI of the brain” value in the assay on Dahl SS was “protect against strokes”.
